According to paper PMC7356956, “1-(1-Arylethylpiperidin-4-yl)thymine Analogs as Antimycobacterial TMPK Inhibitors” (Molecules, 2020):
Values after ≈ are worked out from the molar mass of the structure shown. Where two headings read alike, the source gives them in different places.

What was measured:
[1] = system: M. tuberculosis H37Rv (ATCC 27294); experiment: In vitro antituberculosis assay (MIC, broth microdilution); type: cell-based, Mycobacterium tuberculosis; conditions: for MIC: read-out: MIC (H37Rv)
[2] = system: MRC-5 fibroblasts; experiment: In vitro cytotoxicity assay on MRC-5 fibroblasts; type: cell-based; conditions: for SI (selectivity index): IC50 (MRC-5)/MIC (H37Rv)
Protocol: (§1) The cytotoxicity of compounds on MRC-5 fibroblasts was performed exactly as previously reported.

[3] = target: T1, MtbTMPK (Mycobacterium tuberculosis, UniProt P9WKE1); set-up: method as in PMID 29510037, PMID 27614917
T1 sequence (P9WKE1 whole entry, looked up): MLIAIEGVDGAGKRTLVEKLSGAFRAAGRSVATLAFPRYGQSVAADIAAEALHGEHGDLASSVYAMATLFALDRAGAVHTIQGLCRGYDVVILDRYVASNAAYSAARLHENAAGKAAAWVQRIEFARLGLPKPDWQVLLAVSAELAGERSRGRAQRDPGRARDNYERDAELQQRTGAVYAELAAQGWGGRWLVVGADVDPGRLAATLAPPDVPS

[4] = target: T1, MtbTMPK; experiment: MtbTMPK enzymatic assay (spectrophotometric coupled assay); type: biochemical; conditions: for MtbTMPK inhibitory potency, in words: qualitative statement, compared with 3
Protocol: The enzymatic assay was performed as previously reported on the recombinant purified MtbTMPK [14, 33]. As described by Blondin et al., compounds were evaluated by a serial dilution method using the spectrophotometric assay at fixed concentrations of adenosine triphosphate (ATP) (0.5 mM) and thymidine monophosphate (dTMP; 0.05 mM). The reaction medium includes 50-mM Tris-HCl; pH 7.4; 50-mM KCl; 2-mM MgCl2; 0.2-mM nicotinamide adenine dinucleotide (NADH); 1-mM phosphoenol pyruvate and 2 units each of coupling enzymes (lactate dehydrogenase, pyruvate kinase and nucleoside diphosphate kinase). From the experimental data, the IC50 value was calculated using KaleidaGraph 4.5.3.

[5] = In vitro cytotoxicity assay on MRC-5 fibroblasts; type: cell-based; conditions: human
Protocol: as §1

[6] = system: M. tuberculosis H37Rv (ATCC 27294); conditions: previously reported values; cited from earlier work
[7] = ATP 0.5 mM, dTMP 0.05 mM, mean ± SD of at least two measurements, NI: no inhibition at a concentration of 0.2 mM, read-out: IC50 (MtbTMPK)
[8] = cytotoxicity against MRC-5 fibroblasts, read-out: IC50 (MRC-5)
[9] = Mycobacterium tuberculosis, minimum concentration required to inhibit >99% growth of M. tuberculosis H37Rv in liquid culture, 7–14 days

| Molecule | IC50 [4, 7] [µM] | MIC ([1]; Mycobacterium tuberculosis) [µM] | SI (selectivity index) [2] | IC50 [5, 8] [µM] | MtbTMPK inhibitory potency, in words [4] | other results |
| --- | --- | --- | --- | --- | --- | --- |
| 1-(1-(3-((3,4-Dichlorobenzyl)oxy)phenethyl)piperidin-4-yl)-5-methylpyrimidine-2,4(1H,3H)-dione [Compound 21p] |  |  |  |  |  | MIC ([1]; minimum concentration required to inhibit >99% growth of M. tuberculosis H37Rv in liquid culture, 7–14 days): 12.5 µM; IC50 ([2]; cytotoxicity against MRC-5 fibroblasts): 4.22 µM |
| Cc1cn(C2CCCN(Cc3cccc(Oc4ccccc4)c3)C2)c(=O)[nH]c1=O (centres unmarked) [Compound 1] |  |  |  |  |  | IC50 ([3]; read-out: IC50 (MtbTMPK), reported; previously reported values; cited from earlier work): 21 µM |
| Cc1cn(C2CCN(CCc3cccc(Oc4ccccc4)c3)CC2)c(=O)[nH]c1=O [Compound 3, reference compound] | 17 ± 2 | 37 (≈ 15 µg/mL) | >1.73 | > 64 |  | MIC (H37Rv), reported [6]: 37 µM (≈ 15 µg/mL); IC50 ([3]; previously reported values; read-out: IC50 (MtbTMPK), reported; cited from earlier work): 11 µM |
| Cc1cn(C2CCN(CCc3ccccc3)CC2)c(=O)[nH]c1=O [Compound 21a, 5-Methyl-1-(1-phenethylpiperidin-4-yl)pyrimidine-2,4(1H,3H)-dione] | 680 ± 90 | > 50 |  | > 64 |  | loss/decrease in MtbTMPK inhibitory potency relative to 3 ([4]; compared with compound 3): 40 fold |
| Cc1cn(C2CCN(CCc3ccc(-c4ccccc4)cc3)CC2)c(=O)[nH]c1=O [Compound 21b, 1-(1-(2-([1,1’-Biphenyl]-4-yl)ethyl)piperidin-4-yl)-5-methylpyrimidine-2,4(1H,3H)-dione] | > 200 | > 50 |  | 22.2 | complete loss of enzyme inhibitory potency |  |
| Cc1cn(C2CCN(CCc3ccccc3Oc3ccccc3)CC2)c(=O)[nH]c1=O [Compound 21c, 5-Methyl-1-(1-(2-phenoxyphenethyl)piperidin-4-yl)pyrimidine-2,4(1H,3H)-dione] | 100 ± 15 | 50 (≈ 20.3 µg/mL) | 0.54 | 26.8 | negative effect on the inhibitory activity |  |
| Cc1cn(C2CCN(CCc3ccc(Oc4ccccc4)cc3)CC2)c(=O)[nH]c1=O [Compound 21e, 5-Methyl-1-(1-(4-phenoxyphenethyl)piperidin-4-yl)pyrimidine-2,4(1H,3H)-dione] | 160 ± 22 | > 50 |  | > 64 | negative effect on the inhibitory activity |  |
| Cc1ccc(Oc2cccc(CCN3CCC(n4cc(C)c(=O)[nH]c4=O)CC3)c2)cc1 [Compound 21f, 5-Methyl-1-(1-(3-(p-tolyloxy)phenethyl)piperidin-4-yl)pyrimidine-2,4(1H,3H)-dione] | 49 ± 7 | 19 (≈ 7.97 µg/mL) | 0.44 | 8.42 |  |  |
| Cc1cn(C2CCN(CCc3cccc(Oc4ccc(Cl)c(Cl)c4)c3)CC2)c(=O)[nH]c1=O [Compound 21g, 1-(1-(3-(3,4-Dichlorophenoxy)phenethyl)piperidin-4-yl)-5-methylpyrimidine-2,4(1H,3H)-dione] | 45 ± 2 | 19 (≈ 9.01 µg/mL) | 0.30 | 5.66 |  |  |
| Cc1cn(C2CCN(CCc3cccc(Oc4ccc(Cl)cc4)c3)CC2)c(=O)[nH]c1=O [Compound 21h, 1-(1-(3-(4-Chlorophenoxy)phenethyl)piperidin-4-yl)-5-methylpyrimidine-2,4(1H,3H)-dione] | 49 ± 8 | 12.5 (≈ 5.5 µg/mL) | 0.46 | 5.81 |  | increase in IC50-value (MtbTMPK) relative to 21j ([4]; compared with isomer 21j): 10 fold |
| COc1ccc(Oc2cccc(CCN3CCC(n4cc(C)c(=O)[nH]c4=O)CC3)c2)cc1 [Compound 21i, 1-(1-(3-(4-Methoxyphenoxy)phenethyl)piperidin-4-yl)-5-methylpyrimidine-2,4(1H,3H)-dione] | 34 ± 5 | 25 (≈ 10.9 µg/mL) | >2.56 | > 64 |  |  |
| Cc1cn(C2CCN(CCc3cccc(Oc4cccc(Cl)c4)c3)CC2)c(=O)[nH]c1=O [Compound 21j, 1-(1-(3-(3-Chlorophenoxy)phenethyl)piperidin-4-yl)-5-methylpyrimidine-2,4(1H,3H)-dione] |  | 19 (≈ 8.36 µg/mL) | 1.33 | 25.2 | significant improvement in the inhibitory potency | improvement of MtbTMPK inhibitory potency relative to 3 ([4]; compared with compound 3): three; improvement of H37Rv growth inhibitory activity relative to 3 ([1]; compared with compound 3): two |
| Cc1cn(C2CCN(CCc3cccc(Oc4ccc(C#N)cc4)c3)CC2)c(=O)[nH]c1=O [Compound 21k, 4-(3-(2-(4-(5-Methyl-2,4-dioxo-3,4-dihydropyrimidin-1(2H)-yl)piperidin-1-yl)ethyl)phenoxy)benzonitrile] | 126 ± 10 | ≥ 50 |  | > 64 | significant drop in MtbTMPK inhibitory potency |  |
| Cc1cn(C2CCN(CCc3cccc(Oc4ccc([N+](=O)[O-])cc4)c3)CC2)c(=O)[nH]c1=O [Compound 21l, 5-Methyl-1-(1-(3-(4-nitrophenoxy)phenethyl)piperidin-4-yl)pyrimidine-2,4(1H,3H)-dione] | 91 ± 10 | 37 (≈ 16.7 µg/mL) | >1.73 | > 64 | significant drop in MtbTMPK inhibitory potency |  |
| Cc1cn(C2CCN(CCc3cccc(Oc4ccc(C(F)(F)F)cc4)c3)CC2)c(=O)[nH]c1=O [Compound 21m, 5-Methyl-1-(1-(3-(4-(trifluoromethyl)phenoxy)phenethyl)piperidin-4-yl)pyrimidine-2,4(1H,3H)-dione] | 135 ± 22 | 37 (≈ 17.5 µg/mL) | >1.73 | > 64 | significant drop in MtbTMPK inhibitory potency |  |
| Cc1cn(C2CCN(CCc3cccc(OCc4ccccc4Cl)c3)CC2)c(=O)[nH]c1=O [Compound 21o, 1-(1-(3-((2-Chlorobenzyl)oxy)phenethyl)piperidin-4-yl)-5-methylpyrimidine-2,4(1H,3H)-dione] | 70 ± 9 | 19 (≈ 8.63 µg/mL) | 0.37 | 7.08 |  |  |
| Cc1cn(C2CCN(CCc3cccc(OCc4cccc(Cl)c4)c3)CC2)c(=O)[nH]c1=O [Compound 21q, 1-(1-(3-((3-Chlorobenzyl)oxy)phenethyl)piperidin-4-yl)-5-methylpyrimidine-2,4(1H,3H)-dione] | 44 ± 2 | 25 (≈ 11.3 µg/mL) | 0.79 | 19.8 |  |  |
| Cc1cn(C2CCCN(CCc3cccc(Oc4ccccc4)c3)C2)c(=O)[nH]c1=O (centres unmarked) [Compound 23, 5-Methyl-1-(1-(3-phenoxyphenethyl)piperidin-3-yl)pyrimidine-2,4(1H,3H)-dione] |  |  |  |  |  | IC50 [4]: 192 ± 53 µM; loss/decrease in MtbTMPK inhibitory potency relative to 3 ([4]; compared with compound 3): > 10 fold; MIC [1, 9]: > 50 µM; IC50 [5]: 21.8 µM |
| Cc1cn(C2CCN(C(=O)Cc3cccc(Oc4ccccc4)c3)CC2)c(=O)[nH]c1=O [Compound 26, 5-Methyl-1-(1-(2-(3-phenoxyphenyl)acetyl)piperidin-4-yl)pyrimidine-2,4(1H,3H)-dione] |  |  |  |  | weak enzyme inhibition | IC50 [4]: 230 ± 63 µM; MIC [1, 9]: > 50 µM; IC50 [5]: > 64 µM |
| c1ccc(Oc2cccc(CCN3CCC(c4ccccc4)CC3)c2)cc1 [Compound 27, 1-(3-Phenoxyphenethyl)-4-phenylpiperidine] |  |  | 1.29 |  | complete loss of the inhibitory potency | IC50 ([4]; read-out: IC50 (MtbTMPK), ATP 0.5 mM, dTMP 0.05 mM, mean ± SD of at least two measurements, NI: no inhibition at a concentration of 0.2 mM): > 200 µM; MIC [1, 9]: 6.25 µM (≈ 2.23 µg/mL); antimycobacterial activity (H37Rv), in words ([1]; qualitative statement): potent antimycobacterial activity; cytotoxicity (MRC-5), in words ([2]; qualitative statement, relative to antimycobacterial activity): equipotent cytotoxicity; IC50 [5]: 8.06 µM |
